Source: patent publication US20250195521A1 (Revolution Medicines, Inc., priority 2020, published 2025)
Like-named read-outs stand apart in the source and are kept apart here.

Columns and labels:
[1] = test system: NCI-H358 cells (K-Ras G12C); test: CellTiter-Glo cell viability, NCI-H358; format: cell-based, human; details: K-Ras G12C, 5-day treatment; read-out: H358 Cell Viability IC50
Procedure, shortened: (§1)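 Endpoint: CellTiter-Glo luminescence on day 5, following ~30 min at room temperature. Data as (sample/mean DMSO)×100, four-parameter logistic fit.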

[2] = molecular target: KRAS G12S (Homo sapiens (Human), UniProt P01116+P62937, G12S); test: Ras-Raf disruption/FRET/MOA assay (BRAF RBD, Cyclophilin A); format: biochemical; details: read-out: KRAS G12S FRET IC50
Procedure, shortened: (§2)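 Ras-GMPPNP (12.5 nM), BRAF RBD (50 nM) and 25 μM Cyclophilin A were incubated with compound for 3 h at 25° C, then detected 1.5 h with anti-His Eu and anti-GST APC; IC50 values follow from the reduced TR-FRET ratio.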

[3] = molecular target: KRAS G13C (Homo sapiens (Human), UniProt P01116+P62937, G13C); test: as above; format: biochemical; details: read-out: KRAS G13C FRET IC50
Procedure, shortened: as §2

[4] = molecular target: KRAS G13D (Homo sapiens (Human), UniProt P01116+P62937, G13D); test: as above; format: biochemical; details: read-out: KRAS G13D FRET data IC50
Procedure, shortened: as §2

[5] = molecular target: KRAS G12D (Homo sapiens (Human), UniProt P01116+P62937, G12D); test: as above; format: biochemical; details: read-out: KRAS G12D FRET IC50
Procedure, shortened: as §2

[6] = molecular target: KRAS G12C (Homo sapiens (Human), UniProt P01116+P62937, G12C); test: as above; format: biochemical; details: read-out: KRAS G12C FRET IC50
Procedure, shortened: as §2

[7] = molecular target: KRAS G12V (Homo sapiens (Human), UniProt P01116+P62937, G12V); test: as above; format: biochemical; details: read-out: KRAS G12V FRET IC50
Procedure, shortened: as §2

[8] = molecular target: NRAS Q61R (Homo sapiens (Human), UniProt P01111+P62937, Q61R); test: as above; format: biochemical
Procedure, shortened: (§3)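 TR-FRET read after 1.5 h with 10 nM anti-His Eu-W1024 and 50 nM anti-GST APC, following 3 h at 25 °C of GMPPNP-loaded His6-Ras (12.5 nM), GST-BRAF RBD (50 nM) and Cyclophilin A (25 μM) with compound from 30 μM final, 10 points, 3-fold. IC50 reported; pH 7.3 HEPES, 100 mM NaCl.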

[9] = molecular target: KRAS Q61H (Homo sapiens (Human), UniProt P01116+P62937, Q61H); test: as above; format: biochemical
Procedure, shortened: as §2

[10] = test system: Capan-1 cells (K-Ras G12V); test: CellTiter-Glo cell viability, Capan-1; format: cell-based, human; details: read-out: Capan-1 Cell Viability IC50
Procedure, shortened: as §1

[11] = test system: K-Ras G12C (NCI-H358 cells); test: Potency assay: pERK in NCI-H358 cells; format: cell-based, human; details: Homo sapiens, read-out: pERK EC50 (H358 KRAS G12C)
Procedure, shortened: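 Cells plated the day before were exposed for 4 h at 37° C, 5% CO2 to a 10-point, 3-fold DMSO dilution series (10 mM top stock), in duplicate. Phospho-ERK was read by AlphaLISA SureFire Ultra or by In-Cell Western with DRAQ5 DNA stain, and IC50 came from a 4-parameter sigmoidal fit.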

[12] = molecular target: NRAS WT (Homo sapiens (Human), UniProt P01111+P62937); test: Ras-Raf disruption/FRET/MOA assay (BRAF RBD, Cyclophilin A); format: biochemical
Procedure, shortened: as §3

[13] = molecular target: NRAS G12C (Homo sapiens (Human), UniProt P01111+P62937, G12C); test: as above; format: biochemical; details: read-out: NRAS G12C FRET data IC50
Procedure, shortened: as §3

[14] = molecular target: KRAS WT (Homo sapiens (Human), UniProt P01116+P62937); test: as above; format: biochemical; details: read-out: KRAS WT FRET data IC50
Procedure, shortened: as §2

[15] = Homo sapiens, CAPAN-1, 120 h, K-Ras G12V, 5-day treatment

Sequence of KRAS G12D (P01116 other isoform, or with tags, fused parts or gaps G12D): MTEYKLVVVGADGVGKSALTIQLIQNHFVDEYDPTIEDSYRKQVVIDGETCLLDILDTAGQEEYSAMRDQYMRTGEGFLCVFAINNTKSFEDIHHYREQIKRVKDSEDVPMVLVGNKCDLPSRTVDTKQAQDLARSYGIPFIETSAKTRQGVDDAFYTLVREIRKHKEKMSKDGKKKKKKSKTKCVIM
Sequence of KRAS G12D (P62937 whole entry): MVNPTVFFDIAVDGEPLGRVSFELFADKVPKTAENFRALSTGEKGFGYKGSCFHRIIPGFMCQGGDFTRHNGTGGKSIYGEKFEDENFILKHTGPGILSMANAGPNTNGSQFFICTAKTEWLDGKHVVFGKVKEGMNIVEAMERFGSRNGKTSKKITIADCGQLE
Sequence of KRAS G12V (P01116 other isoform, or with tags, fused parts or gaps G12V): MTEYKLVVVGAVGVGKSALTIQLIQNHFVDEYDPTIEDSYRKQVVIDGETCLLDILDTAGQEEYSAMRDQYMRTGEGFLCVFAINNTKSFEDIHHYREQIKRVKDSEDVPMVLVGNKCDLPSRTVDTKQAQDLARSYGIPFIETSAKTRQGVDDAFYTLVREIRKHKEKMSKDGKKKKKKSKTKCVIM
Sequence of KRAS G12V (P62937 whole entry): as the sequence (P62937 whole entry) above
Sequence of NRAS G12C (P01111 whole entry G12C): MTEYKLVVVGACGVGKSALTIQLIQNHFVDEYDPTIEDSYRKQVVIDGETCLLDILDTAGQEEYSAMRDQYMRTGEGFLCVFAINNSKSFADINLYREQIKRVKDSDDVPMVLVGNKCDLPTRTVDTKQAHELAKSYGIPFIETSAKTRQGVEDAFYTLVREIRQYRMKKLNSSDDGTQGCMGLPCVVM
Sequence of NRAS G12C (P62937 whole entry): as the sequence (P62937 whole entry) above
Sequence of KRAS G13C (P01116 other isoform, or with tags, fused parts or gaps G13C): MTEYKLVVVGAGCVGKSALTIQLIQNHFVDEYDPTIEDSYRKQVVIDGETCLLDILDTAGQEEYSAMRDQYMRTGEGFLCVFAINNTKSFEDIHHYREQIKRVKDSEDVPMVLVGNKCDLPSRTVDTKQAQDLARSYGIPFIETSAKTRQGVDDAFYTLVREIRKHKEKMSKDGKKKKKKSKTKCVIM
Sequence of KRAS G13C (P62937 whole entry): as the sequence (P62937 whole entry) above
Sequence of KRAS G13D (P01116 other isoform, or with tags, fused parts or gaps G13D): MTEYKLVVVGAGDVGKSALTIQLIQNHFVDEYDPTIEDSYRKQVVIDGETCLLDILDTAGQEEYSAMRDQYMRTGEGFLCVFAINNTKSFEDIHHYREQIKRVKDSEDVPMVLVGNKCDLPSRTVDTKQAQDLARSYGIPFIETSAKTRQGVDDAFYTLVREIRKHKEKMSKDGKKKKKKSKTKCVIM
Sequence of KRAS G13D (P62937 whole entry): as the sequence (P62937 whole entry) above
Sequence of NRAS Q61R (P01111 whole entry Q61R): as the sequence (P01111 whole entry G12C) above, with C12G, Q61R counted along it
Sequence of NRAS Q61R (P62937 whole entry): as the sequence (P62937 whole entry) above
Sequence of KRAS WT (P01116 other isoform, or with tags, fused parts or gaps): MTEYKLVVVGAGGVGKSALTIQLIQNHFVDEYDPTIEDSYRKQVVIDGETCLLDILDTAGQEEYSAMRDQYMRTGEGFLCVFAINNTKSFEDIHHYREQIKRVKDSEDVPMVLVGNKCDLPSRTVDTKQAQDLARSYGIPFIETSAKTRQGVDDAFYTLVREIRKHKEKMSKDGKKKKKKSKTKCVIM
Sequence of KRAS WT (P62937 whole entry): as the sequence (P62937 whole entry) above
Sequence of KRAS Q61H (P01116 other isoform, or with tags, fused parts or gaps Q61H): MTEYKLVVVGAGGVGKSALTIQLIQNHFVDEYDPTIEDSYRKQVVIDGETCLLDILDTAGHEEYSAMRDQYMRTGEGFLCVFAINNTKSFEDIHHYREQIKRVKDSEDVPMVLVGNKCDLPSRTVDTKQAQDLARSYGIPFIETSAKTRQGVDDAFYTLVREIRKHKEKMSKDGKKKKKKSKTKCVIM
Sequence of KRAS Q61H (P62937 whole entry): as the sequence (P62937 whole entry) above
Sequence of NRAS WT (P01111 whole entry): as the sequence (P01111 whole entry G12C) above, with C12G counted along it
Sequence of NRAS WT (P62937 whole entry): as the sequence (P62937 whole entry) above
Sequence of KRAS G12S (P01116 other isoform, or with tags, fused parts or gaps G12S): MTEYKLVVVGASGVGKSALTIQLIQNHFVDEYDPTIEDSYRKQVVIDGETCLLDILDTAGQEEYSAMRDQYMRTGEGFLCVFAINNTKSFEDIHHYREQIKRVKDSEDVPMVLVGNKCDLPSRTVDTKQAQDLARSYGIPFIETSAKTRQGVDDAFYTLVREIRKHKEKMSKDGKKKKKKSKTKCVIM
Sequence of KRAS G12S (P62937 whole entry): as the sequence (P62937 whole entry) above
Sequence of KRAS G12C (P01116-2 other isoform, or with tags, fused parts or gaps G12C): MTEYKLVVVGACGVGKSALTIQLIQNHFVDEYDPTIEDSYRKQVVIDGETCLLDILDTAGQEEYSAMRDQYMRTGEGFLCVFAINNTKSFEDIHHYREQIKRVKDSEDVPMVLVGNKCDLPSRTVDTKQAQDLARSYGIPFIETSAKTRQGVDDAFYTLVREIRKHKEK
Sequence of KRAS G12C (P62937 whole entry): as the sequence (P62937 whole entry) above

IC50 [1] [nM]	IC50 [2] [nM]	IC50 [3] [nM]	IC50 [4] [nM]	IC50 [5] [nM]	IC50 [6] [nM]	IC50 [7] [nM]	IC50 [8] [nM]	IC50 [9] [nM]	EC50 ([11]; NCI-H358 cells, 4 hours) [nM]	IC50 [12] [nM]	IC50 [13] [nM]	IC50 [14] [nM]	Structure (SMILES)	IC50 ([10]; K-Ras G12V, 5-day treatment) [nM]	IC50 [10, 15] [nM]	EC50 ([11]; NCI-H358, 4 h) [nM]	IC50 ([10]; Homo sapiens, CAPAN-1, 120 h) [nM]
	100 to 1000	100 to 1000	100 to 1000	100 to 1000	10 to 100	100 to 1000	100 to 1000	10 to 100		100 to 1000	10 to 100	100 to 1000	CCn1c(-c2cccnc2[C@H](C)OC)c2c3cc(ccc31)-c1csc(n1)C[C@H](NC(=O)[C@H](C(C)C)N(C)C(=O)N1CC([C@@H](CO)OC)C1)C(=O)N1CCC[C@H](N1)C(=O)OCC(C)(C)C2 [Compound A514]		10 to 100		
	100 to 1000	100 to 1000	100 to 1000	100 to 1000	10 to 100	100 to 1000	100 to 1000	10 to 100	< 5000	100 to 1000	10 to 100	100 to 1000	CCn1c(-c2cccnc2[C@H](C)OC)c2c3cc(ccc31)-c1csc(n1)C[C@H](NC(=O)[C@H](C(C)C)N(C)C(=O)N1CC([C@H](CO)OC)C1)C(=O)N1CCC[C@H](N1)C(=O)OCC(C)(C)C2 [Compound A515]		10 to 100		
	100 to 1000	100 to 1000	100 to 1000	100 to 1000	10 to 100	100 to 1000	100 to 1000	10 to 100		100 to 1000	10 to 100	100 to 1000	CCn1c(-c2cccnc2[C@H](C)OC)c2c3cc(ccc31)-c1csc(n1)C[C@H](NC(=O)[C@H](C(C)C)N(C)C(=O)N1CC(C(=O)N3CCOCC3)C1)C(=O)N1CCC[C@H](N1)C(=O)OCC(C)(C)C2 [Compound A543]		10 to 100		

More lines, now with the values behind:

Structure (SMILES)	IC50 [1] [nM]	IC50 [2] [nM]	IC50 [3] [nM]	IC50 [4] [nM]	IC50 [5] [nM]	IC50 [6] [nM]	IC50 [7] [nM]	IC50 [8] [nM]	IC50 [9] [nM]	EC50 ([11]; NCI-H358 cells, 4 hours) [nM]	IC50 [12] [nM]	IC50 [13] [nM]	IC50 [14] [nM]	IC50 ([10]; K-Ras G12V, 5-day treatment) [nM]	IC50 [10, 15] [nM]	EC50 ([11]; NCI-H358, 4 h) [nM]	IC50 ([10]; Homo sapiens, CAPAN-1, 120 h) [nM]
CCn1c(-c2cccnc2[C@H](C)OC)c2c3cc(ccc31)-c1csc(n1)C[C@H](NC(=O)N1CCC1)C(=O)N1CCC[C@H](N1)C(=O)OCC(C)(C)C2 [Compound A369]	100 to 1000	100 to 1000	100 to 1000	100 to 1000	1000 to 10000	100 to 1000	100 to 1000	100 to 1000	100 to 1000					100 to 1000			
CCn1c(-c2cccnc2[C@H](C)OC)c2c3cc(ccc31)-c1csc(n1)C[C@H](NC(=O)[C@H](C(C)C)N(C)C(=O)N1CC(C#N)(N(C)C)C1)C(=O)N1CCC[C@H](N1)C(=O)OCC(C)(C)C2 [Compound A452]								100 to 1000	100 to 1000	< 5000	100 to 1000						
CCn1c(-c2cccnc2[C@H](C)OC)c2c3cc(ccc31)-c1csc(n1)C[C@H](NC(=O)[C@H](C(C)C)N(C)C(=O)N1CC(S(=O)(=O)N(C)C)C1)C(=O)N1CCC[C@H](N1)C(=O)OCC(C)(C)C2 [Compound A551]		100 to 1000	100 to 1000	100 to 1000	100 to 1000	10 to 100	100 to 1000	100 to 1000	10 to 100		100 to 1000	10 to 100	100 to 1000			< 5000	10 to 100
